According to patent US20060004088A1, “Furan derivatives for preventing and curing osteoporosis and pharmaceutical compositions containing the same” (OCT INC., priority 2002, published 2006):

Tested on: osteoclast pregenitor cells
Experiment: Inhibition rates of furan derivatives versus osteoclast formation (TRAP staining)
Type: cell-based, mice
Details: TRAP-positive multinucleated cells, untreated control set as 100%
Procedure: First, bone marrow cells were isolated, as follow. After sacrificing 7-9 week female mice by cervical dislocation, femur and tibia were excised aseptically while removing attached soft tissues. After cutting both ends of long bones, 1 ml of an enzyme solution, containing 0.1% collagenase (Gibco), 0.05% trypsin and 0.5 mM EDTA (Gibco), was injected to the bone marrow cavity at one end using a syringe with a 26-guage needle, and bone marrow was then collected. After shaking the recovered bone marrow for 30 min, bone marrow cells were collected, and cultured in α-minimum essential medium (α-MEM) supplemented with 10% FBS for 24 hrs. Then, non-adherent cells were collected, which are osteoclast pregenitors, aliquotted onto culture plates at a density of 2×10^5 cells per well, and cultured for 8 days in α-MEM supplemented with 20 ng/ml of macrophage-colony stimulating factor (M-CSF, Peprotech, USA) and 30 ng/ml RANKL (Peprotech, USA). During the 8 days of culturing, the cells were treated with the Compound 1. Thereafter, osteoclast formation was investigated by fixing the cultured cells and then carrying out TRAP staining, as described in the following Experimental Example 2.2. In addition, resorption activity of osteoclasts was investigated by measuring the absorption area after removing osteoclasts in cultures in calcium phosphate-coated plates, as described in Experimental Example 2.3, below.
After cell culture, the adherent cells were washed with PBS, and TRAP staining was performed, as follows. After being fixed with citrate-acetate-formaldehyde for 5 min, the cells were incubated for 1 hr in acetate buffer (prewarmed at 37° C., pH 5.0) containing naphthol AS-BI phosphate, fast Garnet GBC and 7 mM tartrate buffer (pH 5.0). TRAP-positive multinucleated cells having 3 or more nuclei were considered as osteoclasts.
Osteoclast pregenitor cells were isolated, and their differentiation to mature osteoclasts was induced, according to the same method as in the Experimental Example 2-1, while treated with each of the furan derivatives of the present invention. According to the same method as in the Experimental Example 2-2, TRAP staining performed, and TRAP-positive multinucleated cells were counted. An inhibition rate of each furan derivative against osteoclast formation was expressed as percentage, wherein the number of stained cells in a control not treated the furan derivative was arbitrarily set as 100% (Tables 14 to 16).

Compound | Inhibition rate against osteoclast formation, % (0.1 μM) [%] | Inhibition rate against osteoclast formation, % (1 μM) [%] | Inhibition rate against osteoclast formation, % (10 μM) [%]
O=Cc1ccc(COC(=O)Cc2ccccc2)o1 [Compound 32] | 0 | 23.3 | 50
O=Cc1ccc(COC(=O)Cc2c(F)cccc2F)o1 [Compound 33] | 0 | 3.3 | 50
O=Cc1ccc(COC(=O)Cc2c(F)cccc2Cl)o1 [Compound 34] | 0 | 16.7 | 36.7
O=Cc1ccc(COC(=O)Cc2cccc(Cl)c2)o1 [Compound 35] | 0 | 23.33 | 43.33
O=Cc1ccc(COC(=O)Cc2ccsc2)o1 [Compound 36] | 0 | 6.67 | 30
O=Cc1ccc(COC(=O)Cc2cccc(F)c2)o1 [Compound 37] | 0 | 10 | 6.67
O=Cc1ccc(COC(=O)Cc2ccc3ccccc3c2)o1 [Compound 38] | 0 | 23.33 | 20
O=Cc1ccc(COC(=O)Cc2ccc(F)cc2F)o1 [Compound 39] | 0 | 10 | 56.67
O=Cc1ccc(COC(=O)C(c2ccccc2)(c2ccccc2)c2ccccc2)o1 [Compound 40] | 0 | 16.67 | 43.33
COc1cccc(F)c1CC(=O)OCc1ccc(C=O)o1 [Compound 41] | 0 | 6.67 | 56.67
COc1ccc(F)c(CC(=O)OCc2ccc(C=O)o2)c1 [Compound 42] | 0 | 23.33 | 53.33
O=Cc1ccc(COC(=O)Nc2cccc(Cl)c2)o1 [Compound 49] | 0 | 10 | 0
O=Cc1ccc(COC(=O)Nc2ccc(Br)cc2)o1 [Compound 50] | 0 | 10 | 0
CCCCNC(=O)OCc1ccc(C=O)o1 [Compound 53] | 0 | 10 | 36.67
O=Cc1ccc(COC(=O)Nc2ccc(Cl)c(Cl)c2)o1 [Compound 54] | 0 | 0 | 10
O=Cc1ccc(COC(=O)Nc2ccccc2Cl)o1 [Compound 55] | 0 | 20 | 20
C=CCc1ccc(OCc2ccc(C(=O)OC)o2)c(OC)c1 [Compound 59] | 0 | 0 | 15.95
COC(=O)c1ccc(COc2ccc(Cl)cc2Cl)o1 [Compound 60] | 0 | 0 | 32.75
COC(=O)c1ccc(COc2ccccc2Cl)o1 [Compound 61] | 0 | 0 | 11.66
